Patent publication US6518339B1, “Aldehyde emission reduction for dibenzylidene sorbitol clarified plastics” (Milliken & Company, priority 2000, dated 2003)

What was measured:
[1] = Water solubility of the hydrazide/aldehyde reaction product; type: physicochemical; settings: tap water; precipitate from adipic dihydrazide and 4-methylbenzaldehyde
Procedure: The reaction product of hydrazide and aldehyde was then tested for water solubility. The test involved the following: To a 10-ounce sample vial was charged 30 ml of tap water and 0.14 g (0.8 mmol) of adipic dihydrazide. This mixture was shaken until a clear, colorless solution was obtained. 4-Methylbezaldehyde (0.14 g, 1.3 mmol) was added to the solution and the mixture was shaken for one minute, immediately precipitating a white solid. The mixture was then allowed to stand for an additional ten minutes, followed by collection of the solids by suction filtration to obtain […] of the (bis 4-methyl)adiponylbis(hydrazone).

[2] = Retort test, UV/VIS measurement of extracted aldehyde (Japanese Pharmacopoeia protocol); settings: hydrazide in formulation with 3,4-DMDBS, versus 3,4-DMDBS alone
Procedure: Testing was then conducted to determine the extent of aldehyde extraction from the compounded plastics. The testing procedures were as follows: Retort testing was performed per the Japanese Pharmacopoeia protocol (Japanese Pharmacopoeia, 13th ed. 1996: 76-82). Seven 50-mil plaques of each formulation were cut into 9 strips, rinsed with water, and placed into clean 1 quart Mason jars containing 200 ml of deionized water. The jars were covered with aluminum foil and autoclaved for 1 hour. The extraction water was then analyzed for UV absorbance between 220-240 nm and from 241-350 nm, after a suitable blank had been tested. Powderless latex gloves were worn during the entire procedure.

melting point [°C]	Water solubility, in words [1]	Structure (SMILES)	Reduction of peak absorbance between 220-240 nm [2] [%]	Reduction of peak absorbance between 241-350 nm [2] [%]
176.3 to 178.6		NNC(=O)CCCC(=O)NN [Example 4, Glutaric dihydrazide]		
186.9 to 189.1		NNC(=O)CCCCCCC(=O)NN [Example 6, Suberic dihydrazide]		
182.5 to 185.5		NNC(=O)CCCCC(=O)NN [Example 2, Adipic dihydrazide]		
	substantially insoluble in water	Cc1ccc(C=NNC(=O)CCCCC(=O)NN=Cc2ccc(C)cc2)cc1 [(bis 4-methyl)adiponylbis(hydrazone)]		
183.2 to 185		NNC(=O)CCCCCC(=O)NN [Example 5, Pimelic dihydrazide]	70	80
